Assay: Stability assay of Lipid A liposomes (LC-ELSD)
Settings: for degradation of Lipid A in liposome formulation containing antioxidant: pH=5, 37° C., day 5
Method: The stability of lipids in formulation were performed and monitored using the following HPLC and ELSD (Evaporative Light Scattering Detector) conditions.
Column: Waters Xbridge C18 2.5 μm 2.1×150 mm reversed phase column
Model: Polymer lab ELS 2100
Evaporator temperature: 90
Nebuliser temperature: 60
Fresh Lipid A liposome samples with loaded siRNA AD1661 were prepared as described herein. These Lipid A liposome samples were incubated in 100 mM NaOAc buffer (pH=5) at 37° C., and were subject to LC-ELSD analysis every other day.
In order to examine whether degradation of Lipid A can be prevented by addition of radical scavengers such as butylated hydroxytoluene (BHT or butylhydroxytoluene), Lipid A-containing liposome formulation LNP08 with lipids molar ratio of 60/7.5/31/1.5 (lipid A/DSPC/Cholesterol/PEG-C14 lipid) loaded with siRNA AD1661 containing BHT was tested in the stability assay as described above. These samples were subject to LC-ELSD analysis at day 5.
In order to examine whether the degradation of Lipid A can be prevented by antioxidants such as vitamin E, Lipid A-containing liposome formulation LNP09 loaded with siRNA AD1661 containing various amount of vitamin E were tested in the stability assay as described above. These samples were subject to LC-ELSD analysis at day 5. Chromatographs comparing the stability of various Lipid A liposome formulations with or without vitamin E were shown in FIG. 34.

With `Cc1cc(C(C)(C)C)c(O)c(C(C)(C)C)c1` [BHT, butylated hydroxytoluene] as the compound, how does the “degradation of Lipid A in liposome formulation containing antioxidant” value read?
The value was “inhibited”.

What does the source list for vitamin E?
degradation of Lipid A, higher amount of antioxidant (LNP09, pH=5, day 5): reverse effect; degradation of Lipid A in liposome formulation containing antioxidant: inhibited

— patent publication US20120101148A1, “LIPID FORMULATION” (ALNYLAM PHARMACEUTICALS, INC., priority 2009, published 2012)
